Data published in US9156829B2, “Cycloalkyl and heterocycloalkyl compounds as orexin receptor antagonists” (Takeda Pharmaceutical Company Limited, priority 2014, dated 2015).

How the values were obtained:
human orexin receptor 1 = human orexin receptor 1 (Homo sapiens (Human), UniProt O43613); assay: Orexin antagonist activity, intracellular calcium FLIPR assay, RBL-2H3 cells expressing human orexin receptor 1; assay type: cell-based; details: RBL-2H3 cells stably expressing human orexin receptor 1; orexin-A at approx. 80% maximal response; compound added 15 minutes before; read-out: Human Orexin1R IC50
human orexin receptor 2 = human orexin receptor 2 (Homo sapiens (Human), UniProt O43614); assay: Orexin antagonist activity, intracellular calcium FLIPR assay, RBL-2H3 cells expressing human orexin receptor 2; assay type: cell-based; details: RBL-2H3 cells stably expressing human orexin receptor 2; orexin-A at approx. 80% maximal response; compound added 15 minutes before; read-out: Human Orexin2R IC50
Sequence of human orexin receptor 2 (O43614 whole entry): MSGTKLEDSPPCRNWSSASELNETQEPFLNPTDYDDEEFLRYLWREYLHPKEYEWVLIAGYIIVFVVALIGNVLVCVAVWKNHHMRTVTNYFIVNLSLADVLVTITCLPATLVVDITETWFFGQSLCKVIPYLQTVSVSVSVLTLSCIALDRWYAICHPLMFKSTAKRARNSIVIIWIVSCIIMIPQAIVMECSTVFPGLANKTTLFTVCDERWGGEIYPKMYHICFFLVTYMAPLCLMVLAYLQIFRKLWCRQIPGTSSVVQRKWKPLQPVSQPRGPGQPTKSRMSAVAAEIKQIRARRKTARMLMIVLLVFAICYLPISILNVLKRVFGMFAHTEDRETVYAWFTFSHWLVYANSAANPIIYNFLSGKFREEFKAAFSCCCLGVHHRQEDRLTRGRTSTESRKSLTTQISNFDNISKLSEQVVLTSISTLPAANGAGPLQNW

Sequence of human orexin receptor 1 (O43613 whole entry): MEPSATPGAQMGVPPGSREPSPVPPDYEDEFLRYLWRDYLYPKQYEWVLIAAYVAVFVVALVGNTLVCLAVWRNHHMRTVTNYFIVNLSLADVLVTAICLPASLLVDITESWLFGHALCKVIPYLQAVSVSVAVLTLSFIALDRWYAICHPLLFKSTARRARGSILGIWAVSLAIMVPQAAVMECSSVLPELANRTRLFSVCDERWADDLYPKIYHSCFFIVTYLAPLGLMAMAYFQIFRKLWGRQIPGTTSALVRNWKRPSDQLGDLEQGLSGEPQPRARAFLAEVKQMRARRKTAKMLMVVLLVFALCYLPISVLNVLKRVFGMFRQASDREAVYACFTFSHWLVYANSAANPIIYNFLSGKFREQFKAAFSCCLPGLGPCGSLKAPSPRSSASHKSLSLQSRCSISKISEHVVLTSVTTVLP

SMILES	IC50 (human orexin receptor 1) [nM]	IC50 (human orexin receptor 2) [nM]
CCc1nc(C(F)(F)F)cnc1N[C@H]1CCC[C@@H]1NC(=O)c1cc(F)ccc1-c1ncccn1 [Example 158, N-[(1S,2S)-2-{[3-Ethyl-5-(trifluoromethyl)pyrazin-2-yl]amino}cyclopentyl]-5-fluoro-2-(pyrimidin-2-yl)benzamide]	5	> 10000
Cc1nc(C(F)(F)F)cnc1N[C@H]1CCC[C@@H]1NC(=O)c1ncccc1-c1ncccn1 [Example 159, N-[(1S,2S)-2-{[3-Methyl-5-(trifluoromethyl)pyrazin-2-yl]amino}cyclopentyl]-3-(pyrimidin-2-yl)pyridine-2-carboxamide]	25	> 10000
Cc1nnc(-c2ccccc2C(=O)N[C@H]2CCC[C@]2(C)Nc2cnc(C(F)(F)F)cn2)o1 [Example 160, 2-(5-Methyl-1,3,4-oxadiazol-2-yl)-N-[(1S,2S)-2-methyl-2-{[5-(trifluoromethyl)pyrazin-2-yl]amino}cyclopentyl]benzamide]	29	> 10000
